What was measured:
NCI/ADR cells = assay: Cytotoxicity, NCI/ADR cells that overexpress P-glycoprotein
Source text: (§2) These cell lines are resistant to anticancer drugs due to overexpression of the transport proteins P-glycoprotein or MRP1.

P-glycoprotein = molecular target: T1, P-glycoprotein (Homo sapiens, UniProt P08183); assay: P-glycoprotein antagonism: sensitivity of NCI/ADR cells to vinblastine; assay type: cell-based; details: absence or presence of 50 nM vinblastine
T1 construct: NCI/ADR cells that overexpress P-glycoprotein; endogenous in cells; host or cells: NCI/ADR cells
Source text: To determine if this is due to inhibition of drug transport activity by these proteins, the effects of these compounds on P-glycoprotein were further characterized. The effects of the compounds on the sensitivity of NCI/ADR cells to vinblastine and of MCF-7/VP cells to vincristine were examined to evaluate antagonism of P-glycoprotein and MRP1, respectively. FIGS. 4a-b present graphs of antagonism score versus concentration for P-glycoprotein and MRP1, respectively.
The Pgp antagonism score is calculated as the percentage survival of cells in the absence of vinblastine/percentage survival in the presence of vinblastine. […] The MRP1 antagonism score is calculated as the percentage survival of cells in the absence of vincristine/percentage survival in the presence of vincristine. […] Concentrations of Compounds 1-5 above their IC50 toward MCF-7 cells are not indicated. Data for one of three similar experiments is shown.

MCF-7 cells = assay: Cytotoxicity, drug-sensitive MCF-7 cells; details: read-out: Cytotoxicity IC50, MCF-7; mean ± SEM for 3 experiments
Source text: as §2

[1] = system: T24 human bladder carcinoma cells; assay: Cytotoxicity, T24 cells; assay type: cell-based; details: mean ± SEM for 3 experiments
[2] = system: NCI 60 human tumor cell lines; assay: NCI IVCLSP growth inhibition, whole panel (text summaries); assay type: cell-based; details: NCI 60 tumor panel
Experimental: (§1) FIG. 1 presents nine compounds that were tested using the National Cancer Institute (NCI) 60 human tumor cell lines. The cells lines, which represent leukemia, melanoma, and cancers of the lung, colon, brain, ovary, breast, prostate, and kidney, are listed in Table 1.
Compounds 1-9 were tested according to the NCI Developmental Therapeutics Program (DTP) In Vitro Cell Line Screening Project (IVCLSP). […] Methodology for testing under the IVCLSP is as follows: The human tumor cell lines of the cancer screening panel are grown in RPMI 1640 medium containing 5% fetal bovine serum and 2 mM L-glutamine. For a typical screening experiment, cells are inoculated into 96 well microtiter plates in 100 μL at plating densities ranging from 5,000 to 40,000 cells/well depending on the doubling time of individual cell lines. After cell inoculation, the microtiter plates are incubated at 37° C., 5% CO2, 95% air and 100% relative humidity for 24 h prior to addition of experimental drugs.
After 24 h, two plates of each cell line are fixed in situ with TCA, to represent a measurement of the cell population for each cell line at the time of drug addition (Tz). Experimental drugs are solubilized in dimethyl sulfoxide at 400-fold the desired final maximum test concentration and stored frozen prior to use. At the time of drug addition, an aliquot of frozen concentrate is thawed and diluted to twice the desired final maximum test concentration with complete medium containing 50 μg/ml gentamicin. Additional four, 10-fold or ½ log serial dilutions are made to provide a total of five drug concentrations plus control. Aliquots of 100 μl of these different drug dilutions are added to the appropriate microtiter wells already containing 100 μl of medium, resulting in the required final drug concentrations.
Following drug addition, the plates are incubated for an additional 48 h at 37° C., 5% CO2, 95% air, and 100% relative humidity. For adherent cells, the assay is terminated by the addition of cold TCA. Cells are fixed in situ by the gentle addition of 50 μl of cold 50% (w/v) TCA (final concentration, 10% TCA) and incubated for 60 minutes at 4° C. The supernatant is discarded, and the plates are washed five times with tap water and air dried. Sulforhodamine B (SRB) solution (100 μl) at 0.4% (w/v) in 1% acetic acid is added to each well, and plates are incubated for 10 minutes at room temperature. After staining, unbound dye is removed by washing five times with 1% acetic acid and the plates are air dried. Bound stain is subsequently solubilized with 10 mM trizma base, and the absorbance is read on an automated plate reader at a wavelength of 515 nm. For suspension cells, the methodology is the same except that the assay is terminated by fixing settled cells at the bottom of the wells by gently adding 50 μl of 80% TCA (final concentration, 16% TCA). Using the seven absorbance measurements [time zero, (Tz), control growth, (C), and test growth in the presence of drug at the five concentration levels (Ti)], the percentage growth is calculated at each of the drug concentrations levels. Percentage growth inhibition is calculated as: [(Ti−Tz)/(C−Tz)]×100 for concentrations for which Ti>/=Tz [(Ti−Tz)/Tz]×100 for concentrations for which Ti<Tz.
Three dose response parameters are calculated for each experimental agent. […] The drug concentration resulting in total growth inhibition (TGI) is calculated from Ti=Tz. […]

A498 = assay: NCI IVCLSP growth inhibition (SRB), A498; assay type: cell-based, human; details: renal cancer A498 cell
Experimental: as §1
Compounds 1-9 were tested according to the NCI Developmental Therapeutics Program (DTP) In Vitro Cell Line Screening Project (IVCLSP). […] Methodology for testing under the IVCLSP is as follows: The human tumor cell lines of the cancer screening panel are grown in RPMI 1640 medium containing 5% fetal bovine serum and 2 mM L-glutamine. […]
Following drug addition, the plates are incubated for an additional 48 h at 37° C., 5% CO2, 95% air, and 100% relative humidity. […] Bound stain is subsequently solubilized with 10 mM trizma base, and the absorbance is read on an automated plate reader at a wavelength of 515 nm. […] Using the seven absorbance measurements [time zero, (Tz), control growth, (C), and test growth in the presence of drug at the five concentration levels (Ti)], the percentage growth is calculated at each of the drug concentrations levels. Percentage growth inhibition is calculated as: [(Ti−Tz)/(C−Tz)]×100 for concentrations for which Ti>/=Tz [(Ti−Tz)/Tz]×100 for concentrations for which Ti<Tz.
Three dose response parameters are calculated for each experimental agent. […]

MCF-7/VP cells = assay: Cytotoxicity, MCF-7/VP cells that overexpress MRP1; details: read-out: Cytotoxicity IC50, MCF-7/VP; mean ± SEM for 3 experiments
Source text: as §2

T1 sequence (P08183 whole entry): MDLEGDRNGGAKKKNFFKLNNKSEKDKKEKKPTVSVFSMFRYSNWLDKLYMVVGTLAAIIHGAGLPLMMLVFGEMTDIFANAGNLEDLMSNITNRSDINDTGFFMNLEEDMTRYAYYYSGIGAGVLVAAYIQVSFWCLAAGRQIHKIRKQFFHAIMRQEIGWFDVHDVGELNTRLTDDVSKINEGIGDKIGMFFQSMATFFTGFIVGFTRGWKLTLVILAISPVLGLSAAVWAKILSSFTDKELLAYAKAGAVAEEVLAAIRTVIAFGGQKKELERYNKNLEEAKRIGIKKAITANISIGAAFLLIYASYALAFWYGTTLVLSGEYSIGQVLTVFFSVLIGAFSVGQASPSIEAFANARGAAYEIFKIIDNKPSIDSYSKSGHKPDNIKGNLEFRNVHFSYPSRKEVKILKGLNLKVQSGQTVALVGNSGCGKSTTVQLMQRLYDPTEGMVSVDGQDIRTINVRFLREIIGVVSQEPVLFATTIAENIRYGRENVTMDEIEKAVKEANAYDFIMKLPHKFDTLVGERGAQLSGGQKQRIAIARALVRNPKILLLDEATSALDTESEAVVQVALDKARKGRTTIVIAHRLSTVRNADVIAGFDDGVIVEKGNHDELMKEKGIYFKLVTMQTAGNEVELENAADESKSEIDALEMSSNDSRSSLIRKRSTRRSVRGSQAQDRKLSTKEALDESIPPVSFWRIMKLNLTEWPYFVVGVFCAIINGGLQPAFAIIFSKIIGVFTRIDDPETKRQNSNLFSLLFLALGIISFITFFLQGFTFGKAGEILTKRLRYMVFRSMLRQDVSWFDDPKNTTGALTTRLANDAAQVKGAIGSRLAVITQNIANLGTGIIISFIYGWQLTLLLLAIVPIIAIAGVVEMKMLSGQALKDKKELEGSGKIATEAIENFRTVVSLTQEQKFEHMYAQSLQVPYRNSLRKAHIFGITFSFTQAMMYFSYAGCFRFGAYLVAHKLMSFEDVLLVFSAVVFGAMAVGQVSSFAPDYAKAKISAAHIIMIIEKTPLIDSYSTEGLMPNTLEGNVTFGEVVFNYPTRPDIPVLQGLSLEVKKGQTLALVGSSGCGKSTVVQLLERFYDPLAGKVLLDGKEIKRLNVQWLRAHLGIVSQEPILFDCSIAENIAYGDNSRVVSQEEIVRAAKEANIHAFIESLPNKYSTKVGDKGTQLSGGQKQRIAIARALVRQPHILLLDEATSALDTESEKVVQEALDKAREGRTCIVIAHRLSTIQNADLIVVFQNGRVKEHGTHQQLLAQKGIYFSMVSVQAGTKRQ

With `COc1cccc(CCc2cn(Cc3ccccc3)c3nc(N)nc(C)c23)c1` [Compound 3] the “change of cytotoxic potency by substitution (in words)” value (NCI/ADR cells; NCI/ADR, relative to unsubstituted Compound 5) was “enhanced the potency”, the IC50 (NCI/ADR cells; read-out: Cytotoxicity IC50, NCI/ADR, mean ± SEM for 3 experiments) was 5.7 ± 0.7 µM and the “effect on P-glycoprotein-mediated resistance (in words)” value (P-glycoprotein) was “dose-dependent sensitization”. The IC50 (MCF-7 cells) was 8 ± 3.5 µM, the IC50 [1] was 25 ± 2.9 µM and the “GI50 values, level across the tumor cell lines (in words)” value [2] was “micromolar range for 8 of the 56 tumor cell lines”. The “GI50 level (in words)” value (A498) was “two digit nanomolar level” and the IC50 (MCF-7/VP cells) was 22 ± 4.2 µM.

— patent US8501752B2, “Methods for treating cancer and other pathological proliferating disorders by inhibiting mitosis using pyrrolo[2,3-d]pyrimidines” (Duquesne University of the Holy Ghost, priority 2005, dated 2013)
